Results from ChEMBL document CHEMBL1201862, “PubChem BioAssay data set” (2004).
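Exposure lasted 48 hours, with cells grown in 96-well plates and compounds tested at five concentrations. Abbreviation: GI50, concentration required for 50% inhibition of growth.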 Activity calls are given as the source filed them. Cut-off read from the data, not from the text of the source: active = GI50 up to about 1.1 µM and inactive = higher.

Legend:
Experiment in all cases: DTP human tumour cell line panel, 48 h
[1] = tested on: A498
[2] = tested on: A549
[3] = tested on: ACHN
[4] = tested on: CCRF-CEM
[5] = tested on: DU-145
[6] = tested on: EKVX
[7] = tested on: HCC 2998
[8] = tested on: HCT-15
[9] = tested on: Hs-578T
[10] = tested on: KM12
[11] = tested on: Malme-3M
[12] = tested on: OVCAR-4
[13] = tested on: OVCAR-8
[14] = tested on: PC-3
[15] = tested on: SF-295
[16] = tested on: SF-539
[17] = tested on: SK-MEL-28
[18] = tested on: SR
[19] = tested on: TK-10
[20] = tested on: UO-31

Row | SMILES | GI50 [1] | GI50 [2] | GI50 [3] | GI50 [4] | GI50 [5] | GI50 [6] | GI50 [7] | GI50 [8] [µM] | GI50 [9] | GI50 [10] | GI50 [11] | GI50 [12] | GI50 [13] | GI50 [14] | GI50 [15] | GI50 [16] | GI50 [17] | GI50 [18] | GI50 [19] | GI50 [20]
1 | CCOC(=O)c1nc2ccccc2nc1Nc1ccc(C(=O)OC)s1 | > 100 µM (inactive) | > 100 µM (inactive) | > 100 µM (inactive) | > 100 µM (inactive) | > 100 µM (inactive) | > 100 µM (inactive) | > 100 µM (inactive) | > 100 | > 100 µM (inactive) | > 100 µM (inactive) | 18.5 µM (inactive) | > 100 µM (inactive) | > 100 µM (inactive) | > 100 µM (inactive) | > 100 µM (inactive) | > 100 µM (inactive) | > 100 µM (inactive) | > 100 µM (inactive) | > 100 µM (inactive) | > 100 µM (inactive)
2 | COc1ccc2c(-c3cc4ccccc4o3)cc(=O)oc2c1 | 31.3 µM (inactive) | 44 µM (inactive) | 39.4 µM (inactive) | > 100 µM (inactive) | > 74.8 µM (inactive) | 48.6 µM (inactive) | > 55.1 µM (inactive) | > 100 | 11.4 µM (inactive) | 98.2 µM (inactive) | 71.1 µM (inactive) | 22.8 µM (inactive) | 29.9 µM (inactive) | 73.5 µM (inactive) | 22.9 µM (inactive) | 16.7 µM (inactive) | 53.7 µM (inactive) | > 100 µM (inactive) | 21.7 µM (inactive) | 15 µM (inactive)
3 | NNC(N)Nc1ccccc1 (stereo not given) | > 100 µM (inactive) | > 100 µM (inactive) | > 100 µM (inactive) | > 100 µM (inactive) | > 100 µM (inactive) | > 100 µM (inactive) | > 100 µM (inactive) | > 100 | > 100 µM (inactive) | > 100 µM (inactive) | > 100 µM (inactive) | > 100 µM (inactive) | > 100 µM (inactive) | > 100 µM (inactive) | > 100 µM (inactive) | > 100 µM (inactive) | > 100 µM (inactive) | > 100 µM (inactive) | > 100 µM (inactive) | > 100 µM (inactive)
4 | CC(=O)OC[C@H]1[C@@H]2C(CC[C@]13CO3)OC(=O)CC(C)[C@]2(C)CCc1ccoc1 (stereo not given in full) | > 100 µM (inactive) | > 100 µM (inactive) | > 100 µM (inactive) | > 100 µM (inactive) | > 100 µM (inactive) | > 100 µM (inactive) | > 100 µM (inactive) | > 100 | > 100 µM (inactive) | > 100 µM (inactive) | > 100 µM (inactive) | > 100 µM (inactive) | > 100 µM (inactive) | > 100 µM (inactive) | > 100 µM (inactive) | > 100 µM (inactive) | > 100 µM (inactive) | > 100 µM (inactive) | > 100 µM (inactive) | > 100 µM (inactive)
5 | CC[C@@]1(O)C(=O)OCc2c1cc1n(c2=O)Cc2cc3c(N)cccc3nc2-1 [9-AMINOCAMPTOTHECIN] | 0.0794 µM (active) | 0.0188 µM (active) | < 0.01 µM (active) | < 0.0369 µM (active) | < 0.01 µM (active) | 0.34 µM (active) | 0.111 µM (active) | 0.197 | 4.22 µM (inactive) | 0.23 µM (active) | 0.0785 µM (active) | 0.238 µM (active) | 0.0148 µM (active) | 0.0728 µM (active) | < 0.01 µM (active) | < 0.01 µM (active) | 0.177 µM (active) | < 0.215 µM (active) | 1.63 µM (inactive) | 0.0175 µM (active)
